This note sets out measurements from ChEMBL document CHEMBL1146165, “Structure-based de novo design, synthesis, and biological evaluation of the indole-based PPARgamma ligands (I)” (Bioorg Med Chem Lett, 2006).

The target in this experiment is T1, Peroxisome proliferator-activated receptor gamma (Homo sapiens, UniProt P37231).
T1 sequence (P37231 whole entry): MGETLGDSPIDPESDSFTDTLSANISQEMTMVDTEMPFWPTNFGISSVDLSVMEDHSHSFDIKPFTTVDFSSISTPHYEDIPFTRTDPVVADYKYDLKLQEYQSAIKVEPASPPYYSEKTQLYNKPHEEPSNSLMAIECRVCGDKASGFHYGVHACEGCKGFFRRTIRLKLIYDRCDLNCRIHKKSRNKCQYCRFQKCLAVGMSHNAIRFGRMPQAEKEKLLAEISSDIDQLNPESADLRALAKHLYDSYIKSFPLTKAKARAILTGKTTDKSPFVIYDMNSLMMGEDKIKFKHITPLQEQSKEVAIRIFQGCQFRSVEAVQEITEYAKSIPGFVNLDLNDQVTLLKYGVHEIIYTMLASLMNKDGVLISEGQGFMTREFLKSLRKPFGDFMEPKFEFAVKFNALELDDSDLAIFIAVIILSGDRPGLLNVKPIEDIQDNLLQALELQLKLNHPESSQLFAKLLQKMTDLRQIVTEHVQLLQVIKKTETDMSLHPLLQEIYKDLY
Nature of the experiment: Binding affinity to human PPARgamma.

pKd: −log10 of the molar value.

The term pKd denotes the Kd on a negative log10 scale, so that one unit is a factor of ten. Higher therefore signals a small Kd.

`O=C(NC(Cc1c[nH]c2cc(OCc3ccccc3)ccc12)(C(=O)O)C(=O)O)c1ccc(Cl)cc1` showed a pKd of 5.06.
On to `O=C(NC(Cc1c[nH]c2cc(OCc3ccccc3)ccc12)C(=O)O)c1ccc(Cl)cc1` (configuration not stated), for which the negative-log Kd (pKd) was 5.16.
